Data on 1 compound can be found in patent publication US20180258381A1, “BIO-LAMINA BIOREACTORS AND METHODS OF MAKING AND USING THE SAME” (Oregon State University, priority 2015, published 2018).

The assay addresses T1, sMMO (Methylosinus trichosporium, UniProt P27353).
T1 construct: endogenous in cells; host or cells: M. trichosporium OB3b whole cells, grown without copper (chemostat or batch)
T1 sequence (P27353 1-526): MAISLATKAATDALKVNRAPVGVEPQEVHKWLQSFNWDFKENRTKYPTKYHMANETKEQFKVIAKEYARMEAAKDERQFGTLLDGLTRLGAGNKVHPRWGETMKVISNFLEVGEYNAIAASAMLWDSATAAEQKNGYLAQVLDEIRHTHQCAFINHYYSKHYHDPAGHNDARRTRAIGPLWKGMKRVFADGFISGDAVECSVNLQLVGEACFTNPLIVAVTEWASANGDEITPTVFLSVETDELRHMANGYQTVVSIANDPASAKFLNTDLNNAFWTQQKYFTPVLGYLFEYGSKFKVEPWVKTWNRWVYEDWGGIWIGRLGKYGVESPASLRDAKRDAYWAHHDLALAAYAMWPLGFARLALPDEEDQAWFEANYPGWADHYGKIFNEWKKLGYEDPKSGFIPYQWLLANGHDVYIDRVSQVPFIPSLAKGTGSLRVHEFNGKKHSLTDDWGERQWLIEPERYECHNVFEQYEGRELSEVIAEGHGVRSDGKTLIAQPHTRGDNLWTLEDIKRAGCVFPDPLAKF
T1 sequence (P27354 1-394 partner): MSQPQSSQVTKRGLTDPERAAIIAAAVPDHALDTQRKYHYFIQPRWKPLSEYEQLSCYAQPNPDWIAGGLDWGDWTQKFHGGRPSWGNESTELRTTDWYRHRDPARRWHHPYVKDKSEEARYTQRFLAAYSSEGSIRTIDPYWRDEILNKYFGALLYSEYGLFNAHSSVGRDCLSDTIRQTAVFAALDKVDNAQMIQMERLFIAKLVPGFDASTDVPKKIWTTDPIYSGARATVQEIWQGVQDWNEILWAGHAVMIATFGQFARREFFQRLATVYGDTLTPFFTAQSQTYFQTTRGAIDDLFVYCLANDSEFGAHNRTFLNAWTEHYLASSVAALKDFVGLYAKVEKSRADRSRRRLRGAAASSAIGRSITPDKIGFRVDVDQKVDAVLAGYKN
T1 sequence (P27355 1-169 partner): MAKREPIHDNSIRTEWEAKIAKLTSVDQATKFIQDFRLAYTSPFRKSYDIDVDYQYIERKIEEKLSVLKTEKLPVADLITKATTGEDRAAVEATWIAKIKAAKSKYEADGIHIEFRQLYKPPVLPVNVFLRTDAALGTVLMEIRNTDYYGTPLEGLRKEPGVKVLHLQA
The experiment in a line: sMMO activity reactivity assay, inhibitor trials. Type of assay: cell-based, M. trichosporium OB3b. The protocol: M. trichosporium OB3b cultures were grown under plus copper (pMMO expressed) or minus copper (sMMO expressed) conditions using chemostat or batch culture conditions. Aliquots of culture (˜100 ml) were harvested by centrifugation, and concentrated 50-fold in fresh media. Pelleting cells in this manner ensured that all residual methane was eliminated, increased ease of measuring protein, and made activity assays as brief as possible. Assays were performed in 30 ml crimp cap reaction vials with 4 ml of media (either +Cu or −Cu) with 10 mM sodium formate. To initiate assays, 100 µl of the 50× cell suspension was added to reaction vials with a plastic syringe. Short descriptions of activity assays follow.
Due to the relative insolubility of methane, large volumes should be added to reaction vials to achieve concentrations in the aqueous phase (Cw) above the concentration of methane where the velocity of methane consumption (V) is equal to 0.5Vmax for minus copper grown M. trichosporium OB3b cultures. These large methane additions make direct measurement of methane consumption in short-term assays unlikely, therefore the accumulation of ethylene oxide (ETO) upon the oxidation of ethylene (ETH) was used as a surrogate measurement. Reaction vials were prepared as described above and 5 ml of ETH added as an overpressure. The appearance of ETO was monitored by gas chromatography evaluation of Cw over the course of 30 minutes (FIG. 39A). Killed cells (boiled) served as a negative control. pMMO is a copper enzyme and can be inhibited by allylthiourea (ATU), while sMMO (an iron enzyme) is insensitive to inhibition by ATU. The ETH to ETO assay described above was repeated with 10 μM ATU to discriminate between sMMO and pMMO activity.
Metabolic activity test methods have been developed to monitor specific activities in M. trichosporium OB3b cultures. A naphthalene oxidation assay was used to determine if sMMO is being expressed. An ethylene to ethylene oxide reaction assay and a methane oxidation assay was used to quantify MMO activity, and a methanol oxidation assay was used to estimate MDH activity. Concurrent batch metabolic tests can be conducted to investigate methanol inhibition of methane oxidation, cyclopropane to cyclopropanol conversion and concurrent/subsequent cyclopropanol inhibition of MDH activity, the effect of cyclopropanol inhibition on growth yield, and the effects of high oxygen concentration. Once stable operation and baseline metabolic monitoring in the chemostat have been achieved, inhibitor can be added to evaluate chemostat operation under methanol-producing conditions.
MMO activity has been measured via both methane (CH4) consumption and ethylene oxide (ETO) production upon oxidation of the non-growth substrate ethylene (ETH, Table 4). While ETO production matches methane consumption for pMMO, ETH is not as good a substrate for sMMO as methane. Nevertheless, the ETO accumulation assay is quick (<30 min) and can be used to screen for activity before starting a larger experiment.
The effect of salts NaCl, NH4Cl and CaCl2 on MMO and MDH activity was evaluated using the reactivity assays described above.

For the compound `C1CC1` [CP, cyclopropane], the “Fraction of Activity Remaining, sMMO” value by setting is: (CP 03 μmol) 0.9; (CP 32 μmol) 0.9; (CP 64 μmol) 0.8.
